According to US10604502B2, “Substituted 5-cyanoindole compounds and uses thereof” (Novartis AG, priority 2017, dated 2020):

What follows are compounds tested on CD86 mRNA expression in MV4-11 cells (assay: CD86 mRNA expression assay (qPCR assay) in MV4-11 cells). Conditions: Homo sapiens, 24 hours treatment, CD86 mRNA normalized against ACTB, read-out: CD86 induction qPCR in MV4-11 AC50.
Type: cell-based
Protocol: MV4-11 cells were treated with representative compound of the present invention and RNA was extracted, followed by reverse transcription and Real-Time PCR. […] The data were used for dose response curve fitting in GraphPad Prism to calculate the AC50 of each compound. AC50 of CD86 mRNA expression activation after treatment of representative compounds of present invention will reflect the inhibition of LSD1 activity.

| SMILES | AC50 [nM] |
| --- | --- |
| Cc1cc2c(cc1C#N)c(-c1cncc(N)c1Cl)cn2[C@H]1CC[C@H](O)CC1 [Example 1, 3-(5-amino-4-chloropyridin-3-yl)-1-((1R,4R)-4-hydroxycyclohexyl)-6-methyl-1H-indole-5-carbonitrile] | 98 |
| Cc1cc2c(cc1C#N)c(-c1cncc(N)c1F)cn2[C@H]1CC[C@H](O)CC1 [Example 5, 3-(5-amino-4-fluoropyridin-3-yl)-1-((1R,4R)-4-hydroxycyclohexyl)-6-methyl-1H-indole-5-carbonitrile] | 3620 |
| N#Cc1cc2c(-c3cncc(N)c3Cl)cn([C@H]3CC[C@H](O)CC3)c2cc1Cl [Example 7, 3-(5-amino-4-chloropyridin-3-yl)-6-chloro-1-((1R,4R)-4-hydroxycyclohexyl)-1H-indole-5-carbonitrile] | 569 |
| Cc1cc2c(cc1C#N)c(-c1cncc(N)c1Cl)cn2[C@H]1CC[C@H](S(C)(=O)=O)CC1 [Example 47, 3-(5-amino-4-chloropyridin-3-yl)-6-methyl-1-((1R,4R)-4-(methylsulfonyl)cyclohexyl)-1H-indole-5-carbonitrile] | 202 |
| Cc1cc2c(cc1C#N)c(-c1cncc(N)c1Cl)cn2C1CCC(C(N)=O)C1 (stereo not shown) [Example 68, 3(3-(5-amino-4-chloropyridin-3-yl)-5-cyano-6-methyl-1H-indol-1-yl)cyclopentane-1-carboxamide] | 464 |
| Cc1cc2c(cc1C#N)c(-c1cncc(N)c1Cl)cn2-c1ccc(S(C)(=O)=O)cc1 [Example 77, 3-(5-amino-4-chloropyridin-3-yl)-6-methyl-1-(4-(methylsulfonyl)phenyl)-1H-indole-5-carbonitrile] | 7 |
| Cc1cc2c(cc1C#N)c(-c1cncc(N)c1Cl)cn2-c1ccc(=O)n(C)c1 [Example 84, 3-(5-amino-4-chloropyridin-3-yl)-6-methyl-1-(1-methyl-6-oxo-1,6-dihydropyridin-3-yl)-1H-indole-5-carbonitrile] | 1490 |
